Where a name gives a salt, the structure may show the parent alone. Read-outs that look alike come from different tables or passages of the source. Marks after values point to notes of the source that are not given here.
Columns and labels:
[1] = target: GTP-KRAS-G12D:SOS1 (Homo sapiens (Human), UniProt P01116, G12D); experiment: GTP-KRAS-G12D:SOS1 binding inhibition
Experimental: (§1) The IC50 of the compounds was fitted using a nonlinear regression equation with GraphPad Prism 8. The results are presented in Table 2: • Negative control: DMSO • Positive control: 100 μM BI-2852
(§2) The following nonlinear fitting formula was used to obtain the IC50 (half-maximal inhibitory concentration) of the compounds:
(§3) [formula] • X: logarithm of the compound concentration • Y: 665/615 Ratio

[2] = target: GTP-KRAS-G12D:CRAF (Homo sapiens (Human), UniProt P01116, G12D); experiment: GTP-KRAS-G12D:CRAF binding inhibition
Experimental: The IC50 of the compounds was fitted using a nonlinear regression equation with GraphPad Prism 8. The results are presented in Table 2: • Negative control: DMSO • Positive control: 100 μM BI-2852 The following nonlinear fitting formula was used to obtain the IC50 (half-maximal inhibitory concentration) of the compounds: [formula] • X: logarithm of the compound concentration • Y: 665/615 Ratio

[3] = target: GTP-KRAS-WT:SOS1 (Homo sapiens (Human), UniProt P01116); experiment: KRAS_WT and SOS1 binding inhibition (KRAS-WT/SOS1 binding kit, 665/615 ratio); conditions: GTP 10 μM
Text: To detect the inhibitory capability of small molecule compounds on the binding activity between KRAS_WT and SOS1 using a drug screening system based on the binding of KRAS_WT and SOS1 interaction.
a) BI-2852 was used as a positive control, with its stock solution as the first dilution point, followed by a 3-fold dilution, making a total of 10+0 dilutions. Similarly, the first dilution point of the test compounds was also their respective stock solutions, followed by a 3-fold dilution, making a total of 11+0 dilutions. Using Echo, 0.2 μL of the gradient-diluted compound solutions were transferred into a 384-well plate, with each compound tested in duplicate. The final DMSO concentration was 1%. The plate was centrifuged at 1000 rpm for 1 minute. The final concentrations of the positive controls were 100, 33.33, 11.11, 3.70, 1.23, 0.412, 0.137, 0.046, 0.015, 0.005, and 0 μM. The final concentrations of the test compounds were […], 0.01, and 0 μM.
b) KRAS_WT from the kit was prepared with GTP at a final concentration of 10 μM in the dilution buffer, and 5 μL was transferred into the 384-well reaction plate. The plate was centrifuged at 1000 rpm for 1 minute.
c) Subsequently, 5 μL of the SOS1 mixture was transferred into the 384-well reaction plate. The plate was centrifuged at 1000 rpm for 1 minute and incubated at 25° C. for 15 minutes.
d) 10 μL of the detection mixture was transferred into the 384-well reaction plate. The plate was centrifuged at 1000 rpm for 1 minute and incubated overnight at 4° C.
e) The […] and emission wavelength at 615 nm were read using an Envision multimode plate reader. The 665/615 ratio signal intensity was used to characterize the enzyme activity.
as §1, §2, §3

[4] = In vivo bioavailability experiment in mice (pharmacokinetics); conditions: ICR mice; for clearance / half-life / MRT / Vd / bioavailability: mouse, plasma; for MRT: read-out: Mean residence time; for Vd: read-out: Steady-state volume of distribution
Experimental: Experimental Animals: ICR mice, weighing 20 grams, provided by Sino-British SIPPR Lab Animal Ltd, Shanghai. The compound to be tested was accurately weighed and dissolved in DMSO to prepare a stock solution with a concentration of 15 mg/mL. The compound stock solution was accurately measured and diluted with 0.9% saline and Solutol in a ratio of 8.8:1 to a concentration of 0.3 mg/mL. The solution was clear and transparent, used for intravenous administration. Additionally, the compound was accurately weighed and mixed with 0.5% CMC-Na to a concentration of 0.5 mg/mL, used for oral gavage administration. Intravenous group: Three ICR mice, weighing 20 g+2 g, were intravenously administered the intravenous dosing solution. The dosing volume was 10 mL/kg, with a dose of 3 mg/kg. Blood samples (0.03 mL) were collected from the fundus vein of the mice at pre-dose and at 2, 15, 30, 60, 120, 240, 480, and 1440 minutes post-dose. Oral gavage group: Three ICR mice, weighing 20 g+2 g, were administered the oral gavage dosing solution. The dosing volume was 20 mL/kg, with doses of 10 mg/kg and 30 mg/kg. Blood samples (0.03 mL) were collected from the fundus vein of the mice at pre-dose and at 5, 15, 30, 60, 120, 240, 480, and 1440 minutes post-dose. The blood samples were centrifuged at 6800 g for 6 minutes at 2-8° C. The plasma was collected and stored in centrifuge tubes at -70° C. for later analysis. A 19 μL aliquot of blank mouse plasma was taken, and 1 μL of the standard curve working solution was added to prepare a series of concentration samples at 1, 0.5, 0.2, 0.1, 0.05, 0.01, 0.005, and 0.001 μg/mL. The mixture was vortexed and mixed well, and 400 μL of methanol containing an internal standard (Warfarin, 100 ng/mL) was added to precipitate the proteins. The mixture was vortexed and shaken for 1 minute, centrifuged at 18000 g for 7 minutes at 4° C., and the supernatant was transferred to a 96-well plate for injection. A 20 μL aliquot of the plasma sample was mixed with 400 μL of methanol containing an internal standard (Warfarin, 100 ng/mL) to precipitate the proteins. The mixture was vortexed for 10 minutes, centrifuged at 18000 g for 7 minutes at 4° C., and 400 μL of the supernatant was transferred to a 96-well plate for a 10 μL injection. Liquid chromatography system: Acquity UPLC system (including a binary solvent manager, sample manager, column heater, and degasser) from Waters Corporation, USA. MS/MS system: QTRAP® 6500+ triple quadrupole mass spectrometer equipped with an electrospray ionization (ESI) source from Sciex Corporation, USA. Analytical column: BEH C18 column, 1.7 μm, 50×2.1 mm I.D., from Waters Corporation, USA. Flow rate: 0.60 mL/min; injection volume: 10 μL; column temperature: 40° C. The gradient elution program used was as follows: The ion source was an electrospray ionization source (Turbo Ionspray, ESI); the ion spray voltage was […]; the temperature was 500° C.; the ion source gas 1 (N2) pressure was 50 psi; the ion source gas 2 (N2) pressure was 50 psi; the curtain gas (N2) pressure was 20 psi; the collision gas pressure (CAD) was Medium; detection was performed in positive ion mode; the scan type was multiple reaction monitoring (MRM).

[5] = intravenous injection, dose 3 (3 mg/kg in method)
[6] = oral, dose 30 (30 mg/kg in method)

Compound: CC1CC2(CCc3c(nc(OC[C@@]45CCCN4C[C@H](F)C5)nc3N3CC4CCC(C3)N4)C2)c2cc(O)cc(Cl)c21 (single isomer, unassigned) [Compound 7a, (1R or 1S)-4′-((1R,5S)-3,8-Diazabicyclo[3.2.1]octan-3-yl)-4-chloro-2′-(((2R,7aS)-2-fluorotetrahydro-1H-pyrrolizin-7a(5H)-yl)methoxy)-3-methyl-2,3,5′,8′-tetrahydro-6′H-spiro[indene-1,7′-quinazolin]-6-ol dihydrochloride]
- IC50 [1]: 21.5 nM
- IC50 [2]: 24 nM
- IC50 [3]: 246 nM

Compound: CC1CC2(CCc3c(nc(OC[C@@]45CCCN4C[C@H](F)C5)nc3N3C[C@H]4CC[C@@H](C3)N4)C2)c2cc(O)cc(Cl)c21 (single isomer, unassigned) [Compound 7ab, (1R or 1S, 3S or 3R)-4′-((1R,5S)-3,8-diazabicyclo[3.2.1]octan-3-yl)-4-chloro-2′-(((2R,7aS)-2-fluorotetrahydro-1H-pyrrolizin-7a(5H)-yl)methoxy)-3-methyl-2,3,5′,8′-tetrahydro-6′H-spiro[indene-1,7′-quinazolin]-6-ol dihydrochloride]
- IC50 ([1]; dihydrochloride): 17.4 nM
- IC50 ([2]; dihydrochloride): 84.8 nM
- IC50 ([3]; dihydrochloride): 582 nM

Compound: Oc1cc(Cl)c2c(c1)C1(CC2)CCc2c(N3CC4CCC(C3)N4)nc(OC[C@@]34CCCN3C[C@H](F)C4)nc2C1(F)F (single isomer, unassigned) [Compound 9a, (S or R)-4′-((1R,5S)-3,8-Diazabicyclo[3.2.1]octan-3-yl)-4-chloro-8′,8′-difluoro-2′-(((2R,7aS)-2-fluorotetrahydro-1H-pyrrolizin-7a(5H)-yl)methoxy)-2,3,5′,8′-tetrahydro-6′H-spiro[indene-1,7′-quinazolin]-6-ol dihydrochloride]
- IC50 [1]: 15.2 nM
- IC50 [2]: 46.8 nM
- IC50 [3]: 559 nM

Compound: CCc1cccc2cc(O)cc(-c3c(F)c4c5c(nc(OC[C@]67C[C@@H](F)CN6C[C@@H](CN6C[C@@H](C)O[C@@H](C)C6)C7)nc5c3F)N3CC5CCC(N5)C3CO4)c12 (single isomer, unassigned) [Compound 25b, 4-((2S or 2R)-13-(((2R,6R,7aS)-2-(((2R,6S)-2,6-dimethylmorpholino)methyl)-6-fluorotetrahydro-1H-pyrrolizin-7a(5H)-yl)methoxy)-1,3-difluoro-5a,6,7,8,9,10-hexahydro-5H-6,9-epiminoazepino[2′,1′:3,4][1,4]oxazepino[5,6,7-de]quinazolin-2-yl)-5-ethylnaphthalen-2-ol trihydrochloride]
- IC50 [1]: 6.72 nM
- Area under curve [4, 5]: 7940.26 (h) * (ng/mL)
- Maximum plasma concentration [4, 5]: 22039.3 ng/mL
- Area under curve [4, 6]: 2365.19 (h) * (ng/mL)
- Maximum plasma concentration [4, 6]: 863.75 ng/mL
- clearance [4, 5]: 6.33 mL/min/kg
- half-life [4, 5]: 12.2 h
- MRT [4, 5]: 1.01 h
- Vd [4, 5]: 0.84 L/kg
- bioavailability [4, 6]: 2.98%
- half-life [4, 6]: 3.81 h
- MRT [4, 6]: 3.15 h

Compound: (R or S)-4-((5aS,6R,9S)-1,3-difluoro-13-((2R,7aS)-2-fluorotetrahydro-1H-pyrrolizin-7a(5H)-ylmethoxy)-5a,6,7,8,9,10-hexahydro-5H-6,9-epiminoazepino[2′,1′:3,4][1,4]oxazepino[5,6,7-de]quinazolin-2-yl)-5-ethynyl-6-fluoronaphthalen-2-ol [4b′]
- IC50 [1]: 18.3 nM
- IC50 [2]: 8.22 nM
- IC50 [3]: 5.6 nM

Compound: Oc1cc(-c2cc3c4c(nc(OC[C@@]56CCCN5C[C@H](F)C6)nc4c2F)N2C[C@@H]4CC[C@@H](N4)[C@H]2CO3)c2ccccc2c1 [Compound 3, dihydrochloride]
- IC50 [1]: 11.9 nM
- IC50 [2]: 12.3 nM
- IC50 [3]: 79.6 nM

Compound: CCc1cccc2cc(O)cc(-c3c(F)c4c5c(nc(OC[C@]67C[C@@H](F)CN6C[C@@H](COC)C7)nc5c3F)N3CC5CCC(N5)C3CO4)c12 (single isomer, unassigned) [Compound 18b, 4-((2S or 2R,5aS,6S,9R)-1,3-difluoro-13-(((2R,6S,7aS)-2-fluoro-6-(methoxymethyl)tetrahydro-1H-pyrrolizin-7a(5H)-yl)methoxy)-5a,6,7,8,9,10-hexahydro-5H-6,9-epiminoazepino[2′,1′:3,4][1,4]oxazepino[5,6,7-de]quinazolin-2-yl)-5-ethylnaphthalen-2-ol dihydrochloride]
- IC50 [1]: 7.5 nM
- Area under curve [4, 5]: 1944.73 (h) * (ng/mL)
- Maximum plasma concentration [4, 5]: 7632.72 ng/mL
- Area under curve [4, 6]: 1904.95 (h) * (ng/mL)
- Maximum plasma concentration [4, 6]: 508.76 ng/mL
- clearance [4, 5]: 24.5 mL/min/kg
- half-life [4, 5]: 11.8 h
- MRT [4, 5]: 1.41 h
- Vd [4, 5]: 4.98 L/kg
- bioavailability [4, 6]: 9.8%
- half-life [4, 6]: 3.57 h
- MRT [4, 6]: 3.77 h

Compound: CCc1cccc2cc(O)cc(-c3c(F)c4c5c(nc(OC[C@@]67CCCN6C[C@H](F)C7)nc5c3F)N3CC5CCC(N5)C3CCO4)c12 (single isomer, unassigned) [13a′, 4-((2S or 2R,6aS,7S,10R)-1,3-Difluoro-14-(((2R,7aS)-2-fluorotetrahydro-1H-pyrrolizin-7a(5H)-yl)methoxy)-5,6,6a,7,8,9,10,11-octahydro-7,10-epiminoazepino[1′,2′: 5,6][1,5]oxazocino[4,3,2-de]quinazolin-2-yl)-5-ethylnaphthalen-2-ol]
- IC50 [1]: 28.2 nM
- Area under curve [4, 5]: 2062.35 (h) * (ng/mL)
- Maximum plasma concentration [4, 5]: 3563.93 ng/mL
- Area under curve [4, 6]: 3091.66 (h) * (ng/mL)
- Maximum plasma concentration [4, 6]: 781.43 ng/mL
- clearance [4, 5]: 6.5 mL/min/kg
- half-life [4, 5]: 15.9 h
- MRT [4, 5]: 4.73 h
- Vd [4, 5]: 5.33 L/kg
- bioavailability [4, 6]: 15%
- half-life [4, 6]: 4.68 h
- MRT [4, 6]: 4.53 h
